In article PMC9065877, “Safety, tolerability and pharmacokinetics of the oligomer modulator anle138b with exposure levels sufficient for therapeutic efficacy in a murine Parkinson model: A randomised, double-blind, placebo-controlled phase 1a trial” (EBioMedicine, 2022):
Where two headings read alike, the source gives them in different places.

Experiments:
[1] = Safety and tolerability (adverse events, laboratory, vital signs, ECG) in phase 1a trial in healthy subjects; assay type: in vivo, human
Protocol: The primary objective was to assess the safety and tolerability of single (SAD) and multiple (MAD) ascending doses of anle138b to healthy subjects in the fasted state and to assess the safety and tolerability of single doses of anle138b in both the fasted and fed state (FES). To this end, adverse events (AEs), clinical laboratory tests, vital signs, electrocardiograms (ECGs), QT interval corrected for heart rate using Fridericia's formula (QTcF), and physical examination findings were recorded. Participants were instructed to report all potential AEs immediately to the on-site personnel and were assessed by a physician before each dose of study drug. In addition, a physical examination of the relevant body system was performed in the event that a subject reports any new symptoms or AEs. AEs were defined following standard criteria, which are described in the protocol. The detailed parameters and sampling schedule regarding haematology, clinical chemistry, ECG, blood pressure, heart rate and PK are provided in the supplement (supplement 3). Any clinically significant abnormality in these assessments, including changes from baseline, were needed to be reported as an AE.
AEs and medications were coded using the Medical Dictionary for Regulatory Activities (MedDRA) (v22·1). An independent coding review was performed within the Data Sciences department. Clinical chemistry and haematology data (and other safety laboratory data) were collected by a central laboratory (The Doctors Laboratory) and transferred electronically to Quotient Sciences. The list of parameters is provided in supplement 2. All demographic details and sample dates were cross-referenced with the corresponding data on the study database. Data was monitored by an external entity (Wirral Clinical Consultancy Ltd, Heswall, UK). Monitoring included the conduct of a site initiation visit, interim monitoring visits and a close-out visit. The database was closed after all queries had been resolved.
The study was exploratory and no formal sample size calculation was made. Based on experience from previous studies of similar design, eight subjects per cohort were enrolled for parts 1 (SAD) and 2 (MAD) and a total of twelve subjects for part 3 (FES). Populations and analysis sets were determined for safety and PK data after database lock using the criteria defined in the reporting and analysis plan. The safety population and safety analysis set for SAD and MAD were defined after database lock but prior to study unblinding. Statistical analysis and production of summary tables, figures and listings for all safety data (AEs, vital signs, ECGs and safety laboratory assessments) including changes from baseline as required in this study were performed using the statistical package SAS (v9·4). Additional statistics was provided for PK-related data including coefficient of variation (CV%), geometric mean, geometric CV%, and the number n of subjects that were included in the natural logarithmic transformation). In SAD and MAD, dose proportionality was assessed. Formal statistical analysis was performed on the log-transformed PK parameters AUC(0-last), AUC(0-inf), and Cmax for SAD (day 1), and AUC(0-tau) and Cmax for MAD (day 1 and day 7) to assess dose proportionality using the following power model: loge (AUC or Cmax) = µ + βx loge (dose). The estimate obtained for β is a measure of dose proportionality. The estimate of β together with its 90% confidence interval (CI) (βl, βu) was used to quantify the degree of non-proportionality. In MAD, formal statistical analysis was performed on the PK parameters AUC(0-tau) and Cmax to assess dose accumulation. Log-transformed AUC(0-tau) and Cmax was subjected to a mixed-effects model with treatment (dose level), day (day 1 or 7) and treatment-by-day interaction as fixed effects and subject as a random effect. […]

[2] = 28-day toxicity study in rats; conditions: rat, in vivo; for Cmax: at 50 mg, read-out: Cmax at NOAEL
Source text: This trial followed the recommendations of the EMA (European Medicines Agency) (EMEA/CHMP/SWP/28367/07 Rev. 1; 20 July 2017) and the FDA (Food and Drug Administration) (Guidance for Industry: Estimating the Maximum Safe Starting Dose in Initial Clinical Trials for Therapeutics in Adult Healthy Volunteers. U.S. Department of Health and Human Services Food and Drug Administration Center for Drug Evaluation and Research (CDER) July 2005) for dose finding in a first-in-human study. The safe starting dose was set based on toxicity studies in animals. In a 28-day toxicity study in rats, the no-observed-adverse-effect-level (NOAEL) was determined to be 50 mg/kg/day (human equivalent dose of 8·1 mg/kg using the FDA factor of 6·2 according to the FDA Guidance for Industry “Estimating the Maximum Safe Starting Dose in Initial Clinical Trials for Therapeutics in Adult Healthy Volunteers”). Cmaxǀexposure at 50 mg in males were 2460ǀ25600 and in females 2680ǀ21700 ng/mL ǀ ng*h/mL. In a 28-day cynomolgus monkey toxicity study, the NOAEL was 125 mg/kg/day (human equivalent dose of 40·3 mg/kg). Cmaxǀexposure at 125 mg/kg/day were 3170ǀ15700 (males) and 2720ǀ9720 (females) ng/mL ǀ ng*h/mL. Based upon these NOAELs a safe starting dose derived from the more sensitive species (rat) was calculated using a safety factor of 10 (i.e., 0·8 mg/kg), which corresponds to a dose of approximately 50 mg assuming a body weight of 60 kg. […] Escalation between doses was planned to be flexible depending on emerging results but not to exceed an increment of 2-fold.

[3] = Food effect cohort, anle138b 150 mg fed and fasted, N=12
[4] = MAD cohorts, anle138b 100-300 mg QD 7 days, N=18
[5] = SAD cohorts, anle138b 50-300 mg single dose, N=24

## Brc1cccc(-c2cc(-c3ccc4c(c3)OCO4)n[nH]2)c1 [anle138b, 3-(1,3-benzodioxol-5-yl)-5-(3-bromophenyl)-1H-pyrazole]
[1]; 50 to 300 mg
  Dose dependency of AE reporting: no dose dependency
[1]; Food effect cohort, N=12
  Adverse events by attribution to study treatment: Definite, number of events: 0
  Adverse events by attribution to study treatment: Not related, number of events (%): 6 (100)
  Adverse events by attribution to study treatment: Possible, number of events (%): 0
  Adverse events by attribution to study treatment: Probable, number of events: 0
  Adverse events by grade: Mild, number of events (%): 6 (100)
  Adverse events by grade: Moderate, number of events (%): 0
  Adverse events by outcome: Recovered, number of events (%): 6 (100)
  Eye disorders (ocular hyperaemia, vision blurred): number of events [patients affected %]: 0
  Gastrointestinal disorders (diarrhea, nausea): number of events [patients affected %]: 0
  General disorders and administration site conditions (Chest discomfort, fatigue, medical device site reaction): number of events [patients affected %]: 1 [8·3]
  Infections and infestations (Nasopharyngitis, rhinitis): number of events [patients affected %]: 0
  Injury, poisoning and procedural complications (procedural dizziness): number of events [patients affected %]: 2 [16·7]
  Musculosceletal and connective tissue disorders (Back pain): number of events [patients affected %]: 0
  Nervous system disorders (headache, paraestesia): number of events [patients affected %]: 3 [25]
  Psychiatric disorders (abnormal dreams): number of events [patients affected %]: 0
[1]; [3]
  Number of patients with adverse event(s) [%]: 5 [41·7]
  Number of patients with no adverse event [%]: 7 [58·3]
[1]; MAD cohorts, N=18
  Adverse events by attribution to study treatment: Definite, number of events: 0
  Adverse events by attribution to study treatment: Not related, number of events (%): 9 (90)
  Adverse events by attribution to study treatment: Possible, number of events (%): 1 (10)
  Adverse events by attribution to study treatment: Probable, number of events: 0
  Adverse events by grade: Mild, number of events (%): 9 (90)
  Adverse events by grade: Moderate, number of events (%): 1 (10)
  Adverse events by outcome: Recovered, number of events (%): 10 (100)
  Eye disorders (ocular hyperaemia, vision blurred): number of events [patients affected %]: 1 [5·6]
  Gastrointestinal disorders (diarrhea, nausea): number of events [patients affected %]: 1 [5·6]
  General disorders and administration site conditions (Chest discomfort, fatigue, medical device site reaction): number of events [patients affected %]: 1 [5·6]
  Infections and infestations (Nasopharyngitis, rhinitis): number of events [patients affected %]: 1 [5·6]
  Injury, poisoning and procedural complications (procedural dizziness): number of events [patients affected %]: 0
  Musculosceletal and connective tissue disorders (Back pain): number of events [patients affected %]: 2 [11·1]
  Nervous system disorders (headache, paraestesia): number of events [patients affected %]: 4 [16·7]
  Psychiatric disorders (abnormal dreams): number of events [patients affected %]: 0
[1]; [4]
  Number of patients with adverse event(s) [%]: 6 [33·3]
  Number of patients with no adverse event [%]: 12 [66·7]
[1]; MAD part, 100 mg anle138b
  Moderate AE: an episode of back pain
[1]; MAD part, 200 mg anle138b, assessed prior to unblinding
  AE considered possibly related to the study medication: one event of headache
[1]; SAD cohorts, N=24
  Adverse events by attribution to study treatment: Definite, number of events: 0
  Adverse events by attribution to study treatment: Not related, number of events (%): 5 (100)
  Adverse events by attribution to study treatment: Possible, number of events (%): 0
  Adverse events by attribution to study treatment: Probable, number of events: 0
  Adverse events by grade: Mild, number of events (%): 5 (100)
  Adverse events by grade: Moderate, number of events (%): 0
  Adverse events by outcome: Recovered, number of events (%): 5 (100)
  Eye disorders (ocular hyperaemia, vision blurred): number of events [patients affected %]: 1 [4·2]
  Gastrointestinal disorders (diarrhea, nausea): number of events [patients affected %]: 0
  General disorders and administration site conditions (Chest discomfort, fatigue, medical device site reaction): number of events [patients affected %]: 0
  Infections and infestations (Nasopharyngitis, rhinitis): number of events [patients affected %]: 1 [4·2]
  Injury, poisoning and procedural complications (procedural dizziness): number of events [patients affected %]: 0
  Musculosceletal and connective tissue disorders (Back pain): number of events [patients affected %]: 1 [4·2]
  Nervous system disorders (headache, paraestesia): number of events [patients affected %]: 2 [8·3]
  Psychiatric disorders (abnormal dreams): number of events [patients affected %]: 0
[1]; [5]
  Number of patients with adverse event(s) [%]: 4 [16·7]
  Number of patients with no adverse event [%]: 20 [83·3]
[1]; all tested doses (up to 300 mg)
  Tolerability and compound-related side effects: excellent tolerability and no compound-related side effects
[1]; any subject included in the trial
  Changes in safety assessments (laboratory values, vital signs, physical examinations, ECG): no clinically significant individual changes from baseline or notable trends
[2]; female, females
  Cmax: 2680 ng/mL
[2]; male, males
  Cmax: 2460 ng/mL
[2]; 28-day toxicity study, read-out: no-observed-adverse-effect-level (NOAEL)
  NOAEL at 28 days: 50 mg/kg/day
